Reference: US20240417410A1, “TRICYCLIC COMPOUNDS FOR THE TREATMENT OF CANCER” (Hoffmann-La Roche Inc., priority 2023, published 2024)
Like-named read-outs stand apart in the source and are kept apart here.

Legend:
hERG potassium channel = hERG potassium channel (Homo sapiens (Human), UniProt Q12809); test: hERG potassium channel assay (manual patch clamp, CHO cells); assay type: cell-based; conditions: for IC50 / IC20: 34° C., manual patch, CHO cells; for IC20: human, CHO cells stably transfected with hERG channel
hERG potassium channel, sequence (Q12809 whole entry): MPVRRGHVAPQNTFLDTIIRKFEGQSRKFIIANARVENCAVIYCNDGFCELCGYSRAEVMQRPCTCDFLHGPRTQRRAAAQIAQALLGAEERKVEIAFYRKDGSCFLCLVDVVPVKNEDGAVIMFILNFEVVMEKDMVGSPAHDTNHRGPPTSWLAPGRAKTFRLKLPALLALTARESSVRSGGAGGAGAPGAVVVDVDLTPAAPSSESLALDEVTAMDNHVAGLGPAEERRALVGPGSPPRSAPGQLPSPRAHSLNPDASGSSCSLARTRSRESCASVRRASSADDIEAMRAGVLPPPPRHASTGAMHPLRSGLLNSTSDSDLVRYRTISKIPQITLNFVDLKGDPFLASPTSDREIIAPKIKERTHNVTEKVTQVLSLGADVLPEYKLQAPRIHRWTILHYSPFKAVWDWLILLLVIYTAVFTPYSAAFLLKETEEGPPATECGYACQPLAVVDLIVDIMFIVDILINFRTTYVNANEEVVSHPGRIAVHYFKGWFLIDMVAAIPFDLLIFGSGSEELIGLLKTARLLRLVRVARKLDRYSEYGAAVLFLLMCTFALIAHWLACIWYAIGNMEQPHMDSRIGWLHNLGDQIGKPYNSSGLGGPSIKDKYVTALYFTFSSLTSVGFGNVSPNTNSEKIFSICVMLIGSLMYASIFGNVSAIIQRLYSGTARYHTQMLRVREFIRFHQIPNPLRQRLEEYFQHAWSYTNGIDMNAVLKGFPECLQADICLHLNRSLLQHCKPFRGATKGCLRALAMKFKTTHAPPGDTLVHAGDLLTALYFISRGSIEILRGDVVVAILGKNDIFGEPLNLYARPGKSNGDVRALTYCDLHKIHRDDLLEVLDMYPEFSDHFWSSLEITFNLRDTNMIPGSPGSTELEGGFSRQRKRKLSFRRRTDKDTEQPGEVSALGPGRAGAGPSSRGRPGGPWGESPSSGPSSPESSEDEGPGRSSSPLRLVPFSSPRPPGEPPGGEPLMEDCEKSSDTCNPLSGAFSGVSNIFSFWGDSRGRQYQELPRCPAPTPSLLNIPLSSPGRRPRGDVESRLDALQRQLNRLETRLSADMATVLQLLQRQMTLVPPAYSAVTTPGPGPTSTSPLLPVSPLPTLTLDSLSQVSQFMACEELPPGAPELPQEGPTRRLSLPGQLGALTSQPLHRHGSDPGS
Protocol: The purpose of the test was to screen compounds for the activity on hERG channels as a non-clinical cardiac safety evaluation.
Advanced hERG experiments were performed at near-physiological temperature (34° C.) by HEKA EPC10 manual patch system (heka elektronik, EPC10 amplifier). The CHO cells (B′SYS GmbH) stably transfected hERG channel were initially held at −80 mV, depolarized to voltages between −40 mV (100 ms) to 20 mV (500 ms) to activate the hERG outward currents, and then repolarized to −40 mV (500 ms) to record the hERG tail currents, with an interpulse interval of 15s. The recording environment included: Extracellular solution (in mM): 150 NaCl, 4 KCl, 1.2 CaCl2), 1 MgCl2 and 10 HEPES; pH adjusted to 7.2-7.4 with 5 M NaOH; Intracellular solution (in mM): 125 KCl, 10 NaCl, 5 EGTA, 10 HEPES, 0.1 Na2GTP and 5 MgATP; pH adjusted to 7.2 with 1 M KOH. Current inhibitions in the presence of more than 4 concentrations in quadruplicate were used to fit hERG IC50 by Graphpad prism V8.0.

KRAS G12V-BRAF complex = KRAS G12V-BRAF complex (Homo sapiens (Human), UniProt P01116+P62937, G12V); test: KRAS G12V-BRAF with CYPA interaction assay (TR-FRET, selectivity test, Example 132); assay type: biochemical
KRAS G12V-BRAF complex, sequence (P01116-2 other isoform, or with tags, fused parts or gaps G12V): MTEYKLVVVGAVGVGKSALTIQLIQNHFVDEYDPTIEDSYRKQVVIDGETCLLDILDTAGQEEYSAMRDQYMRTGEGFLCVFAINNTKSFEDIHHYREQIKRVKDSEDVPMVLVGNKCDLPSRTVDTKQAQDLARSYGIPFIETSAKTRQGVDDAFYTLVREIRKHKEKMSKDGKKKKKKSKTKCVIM
KRAS G12V-BRAF complex, sequence (P62937 whole entry): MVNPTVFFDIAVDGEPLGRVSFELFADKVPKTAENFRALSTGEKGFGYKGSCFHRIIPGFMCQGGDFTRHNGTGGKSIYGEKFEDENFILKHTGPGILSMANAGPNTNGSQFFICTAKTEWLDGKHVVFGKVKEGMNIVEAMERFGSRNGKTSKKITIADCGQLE
Protocol: (§1) In this example, TR-FRET was used to measure the compound or compound-CYPA dependent disruption of the KRAS G12V-BRAF complex to assess inhibition efficacy. The IC50 ratio between WT KRAS/HRAS/NRAS and KRAS G12V mutant was calculated as selective index, which indicated tolerability and safety profile. Disruption of WT KRAS/HRAS/NRAS-BRAF complex by compounds was detected respectively. In assay buffer containing 25 mM HEPES (PH-7.4,4-(2-hydroxyethyl)-1-piperazineethanesulfonic acid, Thermo, 15630080), 0.002% Tween20, 0.1% BSA, 100 mM NaCl, 5 mM MgCl2, 10 μM GMPPNP (Guanosine 5′-[β,γ-imido]triphosphate trisodium salt hydrate, Sigma, G0635), tagless CYPA and GMPPNP loaded 6His-RAS proteins, and GST-BRAF^RBD were mixed in a well of a 384-well assay plate at final concentrations of 50 nM, 6.25 nM and 1 nM, respectively. Compound was present in plate wells as a 16-point 3-fold dilution series starting at a final concentration of 10 μM and incubated for 3 hours. A mixture of MAb Anti-6His-XL665 (Cisbio, 61HISXLB) and Mab anti-GST-TB cryptate (Cisbio, 61GSTTLB) was then added at a final concentration of 6.67 nM and 0.21 nM, respectively, and the plate was incubated for an additional 1.5 hours. TR-FRET signal was read on a PHERstar FSX microplate reader (Ex320 nm, Em 665/615 nm). Compounds that facilitate disruption of the RAS-BRAF complex were identified as those eliciting a decrease in the TR-FRET ratio relative to DMSO control wells.

[1] = Single dose pharmacokinetics (PK) study in female BALB/c mice; assay type: in vivo, mouse
Protocol: The purpose of this study was to determine the pharmacokinetics of selected compounds following single intravenous bolus or oral gavage administration in female BALB/c mice. Briefly, two groups of female BALB/c mice (available from Shanghai Lingchang Biotechnology Co., Ltd) (N=3/group) were treated with a single dose of compound intravenously at 3 mg/kg (IV) or orally at 30 mg/kg (PO). Blood samples were collected at 5 min (only for IV), […], 30 min, 1 h, 2 h, 4 h, 7 h and 24 h post-dose. Blood samples were placed on ice until centrifugation to obtain plasma samples. The concentration of compound in plasma samples was determined using LC-MS/MS method. The pharmacokinetic parameters were calculated by non-compartmental analysis.

WT KRAS-BRAF complex = WT KRAS-BRAF complex (Homo sapiens (Human), UniProt P01116+P62937); test: WT KRAS-BRAF with CYPA interaction assay (TR-FRET); assay type: biochemical; conditions: WT KRAS
WT KRAS-BRAF complex, sequence (P01116-2 whole entry, looked up): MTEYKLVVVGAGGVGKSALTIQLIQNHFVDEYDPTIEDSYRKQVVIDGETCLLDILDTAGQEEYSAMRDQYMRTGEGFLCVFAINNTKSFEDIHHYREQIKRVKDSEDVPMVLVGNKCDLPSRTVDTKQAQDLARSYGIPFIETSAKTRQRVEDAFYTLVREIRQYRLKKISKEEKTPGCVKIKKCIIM
WT KRAS-BRAF complex, sequence (P62937 whole entry, looked up): as the sequence (P62937 whole entry) above
Protocol: as §1

CYPA = CYPA (Homo sapiens (Human), UniProt P62937); test: CYPA binding analysis by surface plasmon resonance (SPR)
CYPA, sequence (P62937 whole entry): as above
Excerpt: The compounds of this invention created a tri-complex involving the active RAS protein and CYPA, necessitating the initial formation of a binary complex through the compound's interaction with CYPA. The stability of the drug-target complex, as indicated by its equilibrium dissociation constant (KD), is thought to influence the length of target engagement, which in turn could lead to a prolonged effect in the washout experiments. Therefore, the objective of this study is to evaluate the binding kinetics of the compounds with CYPA to determine the stability of the CYPA-compound binary complex and to evaluate whether this stability correlates with the sustained inhibition of the target.
All SPR experiments were conducted on a Biacore 8K+ instrument (Cytiva). Recombinant biotinylated CYPA protein with a C-terminal AVI tag was purified and immobilized on flow cell 2 of SA chip (Cytiva, BR100531), with the flow cell 1 as the blank reference. The running buffer was HBS-P+ Buffer (Cytiva, BR100827, 0.01 M HEPES pH 7.4,0.15 M NaCl, 0.05% v/v Surfactant P20), and the flow rate was 10 μL/min. The immobilization level was achieved to about 1800 response units (RU). Compounds were 3-fold serially diluted to 1.5-3333 nM using HBS-P+Buffer with a final DMSO concentration of 1.5%, and then loaded to flow through the chip surface at a rate of 30 μL/min with HBS-P+Buffer containing 1.5% DMSO as the running buffer. Experiments were performed at 25° C. The contact time and dissociation time were set to 60 s and 200 s, respectively. After binding and dissociation of each sample, the chip was regenerated using 1 M NaCl with a short contact time of 19 s at a rate of 60 μL/min. The sensorgrams were analyzed using Biacore Insight Evaluation software with 1:1 kinetics binding model to determine the association rate constant (kon), dissociation rate constant (koff) and equilibrium dissociation constant (KD).

[2] = 30 mg/kg, po, female BALB/c mice

Compound: CO[C@@H](C)c1ncc(N2CCN(C)CC2)cc1-c1c2c3cc(cc4c3n1CCC4)-c1csc(n1)C[C@H](NC(=O)[C@H]1[C@H](C)[C@@H]1C)C(=O)N1CCC[C@H](N1)C(=O)OCC(C)(C)C2 (atropisomer, axis not shown; (M)) [Example 24, (1r,2R,3S)-N-[(7S,13S)-(20M)-20-[2-[(1S)-1-methoxyethyl]-5-(4-methylpiperazin-1-yl)-3-pyridyl]-17,17-dimethyl-8,14-dioxo-15-oxa-4-thia-9,21,30,31-tetrazahexacyclo[23.3.1.1^2,5.1^9,13.0^19,27.0^21,26]hentriaconta-1 (28),2,5 (31), 19,25 (29),26-hexaen-7-yl]-2,3-dimethyl-cyclopropanecarboxamide]
- fold higher hERG IC20 compared to A122 (hERG potassium channel): 3 fold
- fold higher hERG IC20 compared to A252 (hERG potassium channel): 4 fold
- IC50 (hERG potassium channel): 63700 nM
- IC20 (hERG potassium channel): 13800 nM
- IC50 (KRAS G12V-BRAF complex): 7 nM
- CL ([1]; 3 mg/kg, iv, female BALB/c mice): 5.3 mL/min/kg
- AUC0-last [1, 2]: 57240 ng·h/mL
- Cmax [1, 2]: 10498 ng/mL
- fold increase in AUC0-last compared with compound A122 ([1]; 30 mg/kg, po, mouse): 6 fold
- fold increase in AUC0-last compared with compound A252 ([1]; 30 mg/kg, po, mouse): 4 fold
- fold increase in Cmax compared with compound A122 ([1]; 30 mg/kg, po, mouse): ~4 fold
- fold increase in Cmax compared with compound A252 ([1]; 30 mg/kg, po, mouse): 4.3 fold
- IC50 (WT KRAS-BRAF complex): 32 nM
- fold lower KD compared to A122 (CYPA): 2.3 fold
- fold lower koff compared to A122 (CYPA): 2.9 fold
- Kd (CYPA; SPR, 25° C., immobilized CYPA): 13 nM
- koff (CYPA; SPR, 25° C., immobilized CYPA): 0.019 s⁻¹
- kon (CYPA; SPR, 25° C., immobilized CYPA): 1.4e+06 M⁻¹ s⁻¹

Compound: CCn1c(-c2cc(N3CCN(C)CC3)cnc2[C@H](C)OC)c2c3cc(ccc31)-c1csc(n1)C[C@H](NC(=O)[C@H]1C[C@@H]1C)C(=O)N1CCC[C@H](N1)C(=O)OCC(C)(C)O2 [Example A122, reference compound]
- IC50 (hERG potassium channel): 16900 nM
- IC20 (hERG potassium channel): 4600 nM
- IC50 (KRAS G12V-BRAF complex): 8 nM
- clearance ([1]; female, BALB/c, mouse, plasma, iv, 3 mg/kg, female BALB/c mice): 33.9 mL/min/kg
- AUC(0-t) ([1]; female, BALB/c, mouse, plasma, po, 30 mg/kg, female BALB/c mice): 9760 ng·h/mL
- Cmax ([1]; female, BALB/c, mouse, plasma, po, 30 mg/kg, po, female BALB/c mice, read-out: Cmax): 2530 ng/mL
- IC50 (WT KRAS-BRAF complex): 16 nM
- koff (CYPA; SPR, 25° C., immobilized CYPA): 0.056 s⁻¹
- kon (CYPA; SPR, 25° C., immobilized CYPA): 1.9e+06 M⁻¹ s⁻¹
